Measurements as given in patent US20050147640A1, “Noctuid attractant composition” (priority 2002, published 2005).

System: Noctuidae
Experiment: Sticky board trap comparison of attractant blends beside cotton crops
Assay type: in vivo
From the text: Comparisons of a range of attractant blends were made using sticky board traps adjacent to cotton crops on the Darling Downs region of Queensland, Australia. This experimental set up allowed comparison of attractants in the presence of the crop volatiles without confusing factors such as the effect of non-volatile feeding stimulants.
A series of rectangular boards 1.2 metres high×1.5 metres wide were placed approximately 1 metre outside the edge of a cotton field at spacings of 50 metres. The boards were suspended at a height of 1 metre above the ground using star posts. Four 100 mm diameter round holes were made in the centre of the boards and cotton wicks containing experimental attractant mixes were suspended in these holes using a paper clip. The boards were coated on both sides with 500 to 700 grams of polybutene sticker so insects attracted to the experimental volatiles would become trapped on the boards. Impregnated wicks were placed in the traps mid afternoon and traps were checked after 48 hours.

O=CCc1ccccc1 [PAA, Phenylacetaldehyde]
Mean (Moths/board) (Table 3, total of all Noctuidae, 3.12 mg of each ingredient per sticky board, traps checked after 48 hours): 1.00 Moths/board
Comparison of moth catch in words (Table 3 experiment, sticky traps): not significantly attractive
